EC50 data for one compound are collected here from patent US20250115654A1, “PHARMACEUTICAL COMPOSITION OF GLP-1 RECEPTOR AND GIP RECEPTOR DUAL AGONIST, AND USE THEREOF” (FUJIAN SHENGDI PHARMACEUTICAL CO., LTD., priority 2021, published 2025).

A word on the EC50: it is the concentration giving half of the maximal effect.

One experiment has as its target T1, human GIPR (Homo sapiens, UniProt P48546).
T1 construct: expressed in transfected cells; host or cells: wild-type CHO-K1, transient transfection with hGIP receptor plasmid (Fugene HD)
T1 sequence (P48546 22-466): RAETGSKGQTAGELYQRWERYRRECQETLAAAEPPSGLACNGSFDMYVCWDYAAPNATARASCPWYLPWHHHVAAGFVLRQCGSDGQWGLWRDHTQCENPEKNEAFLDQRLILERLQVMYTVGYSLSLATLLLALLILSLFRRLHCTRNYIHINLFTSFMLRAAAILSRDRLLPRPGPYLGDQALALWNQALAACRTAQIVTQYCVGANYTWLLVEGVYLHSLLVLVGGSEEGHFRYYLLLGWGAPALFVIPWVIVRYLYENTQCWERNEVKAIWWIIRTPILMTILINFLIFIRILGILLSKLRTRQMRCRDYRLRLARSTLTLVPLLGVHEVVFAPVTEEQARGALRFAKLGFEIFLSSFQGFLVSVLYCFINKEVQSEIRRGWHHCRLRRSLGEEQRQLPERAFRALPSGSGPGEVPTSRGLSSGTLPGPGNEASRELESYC
Briefly: Agonist activity against GIPR, cAMP HTRF in CHO-K1 cells transiently transfected with hGIP receptor. Type of experiment: cell-based. Particulars: Table 6 run; read-out: Activity against human GIPR (EC50 nM). (Time-resolved FRET reads energy transfer from a long-lived donor to a nearby acceptor.)

For a further experiment, the target named is human GLP-1R (Homo sapiens, UniProt P43220). Put plainly: Agonist activity against GLP-1R, cAMP HTRF in CHO-K1/GLP-1R/CRE-luc stable cells.

Numbered stars: 1 amine (or outer) side, 2 acyl side, 3 side chain; on linkers, the order of the positions; unused ones are H or OH. Square brackets hold non-standard residues; d marks the D form. Side chains are listed from the residue outwards. Peptide text beside a SMILES is read from it. * marks the point of attachment. C20 diacid = O=C(O)CCCCCCCCCCCCCCCCCCC(=O)*; γGlu = O=C(O)[C@H](CCC(=O)[*:2])N[*:1]; AEEA = NCCOCCOCC(=O)O; Aib = CC(C)(N)C(=O)O

Chain of human GLP-1R (P43220 24-463): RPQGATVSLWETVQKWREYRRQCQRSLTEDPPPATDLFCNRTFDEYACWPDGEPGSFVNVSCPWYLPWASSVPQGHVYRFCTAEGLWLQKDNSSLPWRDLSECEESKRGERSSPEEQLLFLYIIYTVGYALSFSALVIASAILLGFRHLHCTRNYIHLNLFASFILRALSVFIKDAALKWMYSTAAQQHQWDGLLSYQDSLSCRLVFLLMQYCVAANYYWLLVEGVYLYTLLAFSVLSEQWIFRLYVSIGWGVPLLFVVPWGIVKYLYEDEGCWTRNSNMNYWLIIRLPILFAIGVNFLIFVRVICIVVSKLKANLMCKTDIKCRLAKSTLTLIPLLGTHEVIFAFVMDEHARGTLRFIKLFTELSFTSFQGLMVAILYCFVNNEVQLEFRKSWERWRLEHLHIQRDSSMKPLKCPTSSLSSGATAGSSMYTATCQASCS
Protocol for human GIPR: Wild-type CHO-K1 cells were collected, and the cell suspension was adjusted to an appropriate density, seeded in a 6-well plate at 2 mL/well, and placed in an incubator at 37° C. with 5% CO2 for adherence culture overnight.

Regarding `CC[C@H](C)[C@H](NC(=O)[C@H](CCCCN)NC(=O)[C@H](CCC(=O)O)NC(=O)[C@H](CCCCNC(=O)COCCOCCNC(=O)COCCOCCNC(=O)CC[C@H](NC(=O)CCCCCCCCCCCCCCCCCCC(=O)O)C(=O)O)NC(=O)[C@H](Cc1ccc(O)cc1)NC(=O)[C@@H](NC(=O)[C@H](CO)NC(=O)[C@H](Cc1ccc(O)cc1)NC(=O)[C@H](CC(=O)O)NC(=O)[C@H](CO)NC(=O)[C@@H](NC(=O)[C@H](Cc1ccccc1)NC(=O)[C@@H](NC(=O)CNC(=O)[C@H](CCC(=O)O)NC(=O)C(C)(C)NC(=O)[C@@H](N)Cc1ccc(O)cc1)[C@@H](C)O)[C@@H](C)O)[C@@H](C)CC)C(=O)N[C@@H](C)C(=O)N[C@@H](C)C(=O)N[C@@H](CCC(N)=O)C(=O)N[C@@H](CCC(=O)O)C(=O)N[C@@H](Cc1ccccc1)C(=O)N[C@H](C(=O)N[C@@H](CC(N)=O)C(=O)N[C@@H](Cc1c[nH]c2ccccc12)C(=O)N[C@@H](CC(C)C)C(=O)N[C@H](C(=O)N[C@@H](C)C(=O)NCC(=O)NCC(=O)N1CCC[C@H]1C(=O)N[C@@H](CO)C(=O)N[C@@H](CO)C(=O)NCC(=O)N[C@@H](C)C(=O)N1CCC[C@H]1C(=O)N1CCC[C@H]1C(=O)N1CCC[C@H]1C(=O)N[C@@H](CO)C(N)=O)[C@@H](C)CC)[C@@H](C)CC` [Compound 14] (H-Y[Aib]EGTFTSDYSIYK([AEEA-AEEA-γGlu-C20 diacid])EKIAAQEFINWLIAGGPSSGAPPPS-NH2), the half-maximal effective concentration (EC50) at human GIPR came out at 0.13 nM; on human GLP-1R, 0.013 nM.
